Laboratory results as given in patent US6914045B2, “Glycopeptide antibiotics” (Wyeth Holdings Corporation, priority 2001, dated 2005).
≈ marks a conversion by molar mass, not a printed value.

How the values were obtained:
Experiment in all cases: in vitro antibacterial evaluation, MIC by broth dilution
Assay type in all cases: cell-based
Enterococcus sp. = conditions: broth dilution, 18 hours at 35° C.; for MIC Enterococcus faecalis (ATCC 29212): strain ATCC 29212; for MIC Enterococcus faecalis (GC 2242): strain GC 2242; for MIC Enterococcus faecium (GC 2243): strain GC 2243; for MIC Enterococcus faecalis (GC 2691): strain GC 2691; for MIC Enterococcus faecalis (GC 3059): strain GC 3059; for MIC Enterococcus faecalis (GC 4552): strain GC 4552; for MIC Enterococcus faecalis (GC 4553): strain GC 4553; for MIC Enterococcus faecalis (GC 4554): strain GC 4554; for MIC Enterococcus faecium (GC 4556): strain GC 4556; for MIC Enterococcus faecium (GC 4557): strain GC 4557; for MIC Enterococcus avium (GC 4558): strain GC 4558; for MIC Enterococcus faecalis (GC 6189): strain GC 6189
Procedure, shortened: (§1)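 Step 1: dilute antibiotic across 64-0.06 μg/mL in Muller-Hinton II […]. Step 2: inoculate at 5×10^5 CFU/mL.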

Streptococcus sp. = conditions: broth dilution, 18 hours at 35° C.; for MIC Streptococcus pneumoniae (ATCC 6301): strain ATCC 6301; for MIC Streptococcus pneumoniae (GC 1894): strain GC 1894; for MIC Streptococcus pyogenes (GC 4563): strain GC 4563; for MIC Streptococcus agalactiae (GC 4564): strain GC 4564; for MIC Streptococcus pneumoniae (GC 4565): strain GC 4565
Procedure, shortened: as §1

Escherichia coli = test system: Escherichia coli
Procedure, shortened: as §1

Staphylococcus sp. = conditions: broth dilution, 18 hours at 35° C.; for MIC Staphylococcus aureus (GC 1131): strain GC 1131
Procedure, shortened: as §1

MIC Enterococcus faecalis (ATCC 29212) (Enterococcus sp.; inoculum 5×10^5 CFU/mL): 4 µg/mL (≈ 2.68 µM)
MIC Enterococcus faecalis (GC 2242) (Enterococcus sp.; inoculum 5×10^5 CFU/mL): 2 µg/mL (≈ 1.34 µM)
MIC Enterococcus faecium (GC 2243) (Enterococcus sp.; inoculum 5×10^5 CFU/mL): 4 µg/mL (≈ 2.68 µM)
MIC Enterococcus faecalis (GC 2691) (Enterococcus sp.; inoculum 5×10^5 CFU/mL): 1 µg/mL (≈ 0.669 µM)
MIC Enterococcus faecalis (GC 3059) (Enterococcus sp.; inoculum 5×10^5 CFU/mL): 16 µg/mL (≈ 10.7 µM)
MIC Enterococcus faecalis (GC 4552) (Enterococcus sp.; inoculum 5×10^5 CFU/mL): 4 µg/mL (≈ 2.68 µM)
MIC Enterococcus faecalis (GC 4553) (Enterococcus sp.; inoculum 5×10^5 CFU/mL): 2 µg/mL (≈ 1.34 µM)
MIC Enterococcus faecalis (GC 4554) (Enterococcus sp.; inoculum 5×10^5 CFU/mL): 2 µg/mL (≈ 1.34 µM)
MIC Enterococcus faecium (GC 4556) (Enterococcus sp.; inoculum 5×10^5 CFU/mL): 4 µg/mL (≈ 2.68 µM)
MIC Enterococcus faecium (GC 4557) (Enterococcus sp.; inoculum 5×10^5 CFU/mL): 8 µg/mL (≈ 5.36 µM)
MIC Enterococcus avium (GC 4558) (Enterococcus sp.; inoculum 5×10^5 CFU/mL): 4 µg/mL (≈ 2.68 µM)
MIC Enterococcus faecalis (GC 6189) (Enterococcus sp.; inoculum 5×10^5 CFU/mL): 0.5 µg/mL (≈ 0.335 µM)
MIC Enterococcus faecalis (ATCC 29212) (Enterococcus sp.): 4 µg/mL (≈ 2.68 µM)
MIC Enterococcus faecalis (GC 2242) (Enterococcus sp.): 2 µg/mL (≈ 1.34 µM)
MIC Enterococcus faecium (GC 2243) (Enterococcus sp.): 4 µg/mL (≈ 2.68 µM)
MIC Enterococcus faecalis (GC 2691) (Enterococcus sp.): 1 µg/mL (≈ 0.669 µM)
MIC Enterococcus faecalis (GC 3059) (Enterococcus sp.): 16 µg/mL (≈ 10.7 µM)
MIC Enterococcus faecalis (GC 4552) (Enterococcus sp.): 4 µg/mL (≈ 2.68 µM)
MIC Enterococcus faecalis (GC 4553) (Enterococcus sp.): 2 µg/mL (≈ 1.34 µM)
MIC Enterococcus faecalis (GC 4554) (Enterococcus sp.): 2 µg/mL (≈ 1.34 µM)
MIC Enterococcus faecium (GC 4556) (Enterococcus sp.): 4 µg/mL (≈ 2.68 µM)
MIC Enterococcus faecium (GC 4557) (Enterococcus sp.): 8 µg/mL (≈ 5.36 µM)
MIC Enterococcus avium (GC 4558) (Enterococcus sp.): 4 µg/mL (≈ 2.68 µM)
MIC Enterococcus faecalis (GC 6189) (Enterococcus sp.): 0.5 µg/mL (≈ 0.335 µM)
MIC Streptococcus pneumoniae (ATCC 6301) (Streptococcus sp.; inoculum 5×10^5 CFU/mL): <0.06 µg/mL
MIC Streptococcus pneumoniae (GC 1894) (Streptococcus sp.; inoculum 5×10^5 CFU/mL): <0.06 µg/mL
MIC Streptococcus pyogenes (GC 4563) (Streptococcus sp.; inoculum 5×10^5 CFU/mL): 0.12 µg/mL (≈ 0.0803 µM)
MIC Streptococcus agalactiae (GC 4564) (Streptococcus sp.; inoculum 5×10^5 CFU/mL): <0.06 µg/mL
MIC Streptococcus pneumoniae (GC 4565) (Streptococcus sp.; inoculum 5×10^5 CFU/mL): <0.06 µg/mL
MIC Streptococcus pneumoniae (ATCC 6301) (Streptococcus sp.): <0.06 µg/mL
MIC Streptococcus pneumoniae (GC 1894) (Streptococcus sp.): <0.06 µg/mL
MIC Streptococcus pyogenes (GC 4563) (Streptococcus sp.): 0.12 µg/mL (≈ 0.0803 µM)
MIC Streptococcus agalactiae (GC 4564) (Streptococcus sp.): <0.06 µg/mL
MIC Streptococcus pneumoniae (GC 4565) (Streptococcus sp.): <0.06 µg/mL
MIC Escherichia coli (ATCC 25922) (Escherichia coli; strain ATCC 25922, 18 hours at 35° C.): >64 µg/mL
MIC Escherichia coli (GC 4559) (Escherichia coli; strain GC 4559, 18 hours at 35° C.): >64 µg/mL
MIC Escherichia coli (GC 4560) (Escherichia coli; strain GC 4560, 18 hours at 35° C.): 16 µg/mL (≈ 10.7 µM)
MIC Staphylococcus aureus (GC 1131) (Staphylococcus sp.; inoculum 5×10^5 CFU/mL): 4 µg/mL (≈ 2.68 µM)
MIC Staphylococcus aureus (ATCC 29213) (Staphylococcus sp.; strain ATCC 29213): 16 µg/mL (≈ 10.7 µM)
MIC Staphylococcus aureus (GC 1131) (Staphylococcus sp.): 4 µg/mL (≈ 2.68 µM)
MIC Staphylococcus aureus (GC 3051) (Staphylococcus sp.; strain GC 3051): 8 µg/mL (≈ 5.36 µM)
MIC Staphylococcus aureus (GC 3053) (Staphylococcus sp.; strain GC 3053): 4 µg/mL (≈ 2.68 µM)
MIC Staphylococcus aureus (GC 4541) (Staphylococcus sp.; strain GC 4541): 8 µg/mL (≈ 5.36 µM)
MIC Staphylococcus aureus (GC 4542) (Staphylococcus sp.; strain GC 4542): 8 µg/mL (≈ 5.36 µM)
MIC Staphylococcus aureus (GC 4544) (Staphylococcus sp.; strain GC 4544): 8 µg/mL (≈ 5.36 µM)
MIC Staphylococcus aureus (GC 4545) (Staphylococcus sp.; strain GC 4545): 4 µg/mL (≈ 2.68 µM)
MIC Staphylococcus aureus-SMITH (GC 4543) (Staphylococcus sp.; strain GC 4543): 4 µg/mL (≈ 2.68 µM)
MIC Coagulase Negative Staphylococcus (GC 4547) (Staphylococcus sp.; strain GC 4547): 32 µg/mL (≈ 21.4 µM)
MIC Coagulase Negative Staphylococcus (GC 4548) (Staphylococcus sp.; strain GC 4548): 0.5 µg/mL (≈ 0.335 µM)
MIC Coagulase Negative Staphylococcus (GC 4549) (Staphylococcus sp.; strain GC 4549): 2 µg/mL (≈ 1.34 µM)
MIC Coagulase Negative Staphylococcus (GC 4551) (Staphylococcus sp.; strain GC 4551): 4 µg/mL (≈ 2.68 µM)
MIC Coagulase Negative Staphylococcus (GC 6257) (Staphylococcus sp.; strain GC 6257): 2 µg/mL (≈ 1.34 µM)
SMILES: CC(c1ccccc1)C1NC(=O)CNC(=O)C(CO)NC(=O)C(C(O)C2CNC(=N)N2C2OC(CO)C(O)C(O)C2O)NC(=O)C(C(O)C2CNC(=N)N2)NC(=O)C(Cc2ccc(OC3OC(CO)C(OC4OC5COC(c6ccc(-c7ccc(Cl)cc7)cc6)OC5C(O)C4O)C(O)C3O)cc2)NC1=O (stereo not drawn) [Example 178, Cyclo[glycyl-β-methylphenylalanyl-O-[4-O-[4,6-O-[4-(4-chlorophenyl)benzylidene]hexopyranosyl]hexopyranosyl]tyrosyl-3-(2-iminoimidazolidin-4-yl)seryl-3-(3-hexopyranosyl-2-iminoimidazolidin-4-yl)serylseryl]]
MIC Staphylococcus haemolyticus (GC 4546) (Staphylococcus sp.; strain GC 4546): 8 µg/mL (≈ 5.36 µM)
